In patent US9878986B2, “Compounds for selective histone deacetylase inhibitors, and pharmaceutical composition comprising the same” (CHONG KUN DANG PHARMACEUTICAL CORP., priority 2013, dated 2018):

Columns and labels:
[1] = biological target: HDAC1 (Homo sapiens, UniProt Q13547); assay: Test of HDAC activities, HDAC1 Fluorimetric Drug Discovery Assay Kit; format: biochemical; set-up: purchased Enzolifesciences BML-AK511; conditions: samples at 100, 1000, 10000 nM; 37° C. 60 minutes; fluorescence Ex 390, Em 460; read-out: HDAC inhibitory activities, HDAC1
Chain of HDAC1 (Q13547 whole entry): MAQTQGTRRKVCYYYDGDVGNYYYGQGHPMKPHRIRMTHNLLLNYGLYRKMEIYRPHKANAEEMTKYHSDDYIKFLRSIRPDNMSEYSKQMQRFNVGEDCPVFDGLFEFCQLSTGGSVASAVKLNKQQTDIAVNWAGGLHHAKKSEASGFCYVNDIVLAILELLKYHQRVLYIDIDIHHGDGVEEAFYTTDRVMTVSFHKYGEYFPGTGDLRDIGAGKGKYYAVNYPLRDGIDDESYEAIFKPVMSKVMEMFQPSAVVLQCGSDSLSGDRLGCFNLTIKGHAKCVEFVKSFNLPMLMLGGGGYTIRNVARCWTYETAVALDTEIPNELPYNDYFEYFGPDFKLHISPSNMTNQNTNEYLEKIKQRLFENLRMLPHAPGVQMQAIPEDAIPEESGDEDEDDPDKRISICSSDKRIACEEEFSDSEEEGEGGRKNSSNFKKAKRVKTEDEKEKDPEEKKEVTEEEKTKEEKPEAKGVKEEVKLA
Experimental: (§1) The HDAC inhibitory activities of test materials were measured using the HDAC1 Fluorimetric Drug Discovery Assay Kit (Enzolifesciences: BML-AK511) and HDAC6 human recombinant (Calbiochem: 382180). In the HDAC1 assay, the samples were treated with concentrations of 100, 1000, and 10000 nM, and in the HDAC6 assay, the samples were treated with concentrations of 0.1, 1, 10, 100, and 1000 nM. After the treatment of the samples, the samples were reacted at 37° C. for 60 minutes, treated with a developer, and then reacted at 37° C. for 30 minutes. Then, the fluorescence intensity (Ex 390, Em 460) was measured using the FlexStation 3 (Molecular device).

[2] = biological target: T1, HDAC 6 (Homo sapiens, UniProt Q9UBN7); assay: Test of HDAC activities, HDAC6 (fluorimetric); format: biochemical; set-up: purchased Calbiochem 382180; conditions: samples at 0.1, 1, 10, 100, 1000 nM; 37° C. 60 minutes; fluorescence Ex 390, Em 460; read-out: HDAC inhibitory activities, HDAC6
T1 sequence (Q9UBN7 1-1215): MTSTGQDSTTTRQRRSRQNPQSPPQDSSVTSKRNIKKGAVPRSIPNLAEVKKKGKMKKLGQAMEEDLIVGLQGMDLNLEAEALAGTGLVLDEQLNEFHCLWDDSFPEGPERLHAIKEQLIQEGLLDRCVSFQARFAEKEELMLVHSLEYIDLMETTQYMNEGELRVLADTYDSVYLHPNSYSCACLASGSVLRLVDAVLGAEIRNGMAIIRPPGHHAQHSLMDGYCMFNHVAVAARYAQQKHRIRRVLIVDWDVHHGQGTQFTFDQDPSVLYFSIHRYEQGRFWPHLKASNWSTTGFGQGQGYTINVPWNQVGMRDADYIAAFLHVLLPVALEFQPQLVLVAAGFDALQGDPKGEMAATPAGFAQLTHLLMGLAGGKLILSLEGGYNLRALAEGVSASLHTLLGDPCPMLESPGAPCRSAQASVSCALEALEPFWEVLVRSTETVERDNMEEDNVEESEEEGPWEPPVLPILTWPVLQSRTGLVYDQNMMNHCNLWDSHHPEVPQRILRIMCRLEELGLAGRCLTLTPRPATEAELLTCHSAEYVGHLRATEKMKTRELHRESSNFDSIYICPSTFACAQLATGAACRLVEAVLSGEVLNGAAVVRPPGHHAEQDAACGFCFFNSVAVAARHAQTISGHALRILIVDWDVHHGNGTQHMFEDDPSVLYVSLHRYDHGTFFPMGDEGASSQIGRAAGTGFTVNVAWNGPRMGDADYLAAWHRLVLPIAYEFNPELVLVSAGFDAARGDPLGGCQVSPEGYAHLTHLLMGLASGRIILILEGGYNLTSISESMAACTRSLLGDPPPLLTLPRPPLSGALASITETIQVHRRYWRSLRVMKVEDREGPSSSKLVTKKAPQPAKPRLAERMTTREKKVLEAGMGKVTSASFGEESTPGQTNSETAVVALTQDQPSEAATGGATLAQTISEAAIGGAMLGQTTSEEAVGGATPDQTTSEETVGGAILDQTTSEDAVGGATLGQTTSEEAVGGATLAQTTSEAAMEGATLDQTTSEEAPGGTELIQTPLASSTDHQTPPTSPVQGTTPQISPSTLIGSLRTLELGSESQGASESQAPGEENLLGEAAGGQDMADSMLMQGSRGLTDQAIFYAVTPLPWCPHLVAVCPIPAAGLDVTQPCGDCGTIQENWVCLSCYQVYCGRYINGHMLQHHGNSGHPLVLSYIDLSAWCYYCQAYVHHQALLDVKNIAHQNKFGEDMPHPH
Experimental: as §1

| SMILES | IC50 [1] [nM] | IC50 [2] [nM] |
| --- | --- | --- |
| Cc1ccc(N(Cc2ccc(C(=O)NO)cc2)C(=O)N2CCOCC2)c(F)c1 [Compound 439, N-(2-fluoro-4-methylphenyl)-N-(4-(hydroxycarbamoyl)benzyl)morpholine-4-carboxamide] | 632 | 2 |
| Cc1ccc(N(Cc2ccc(C(=O)NO)cc2)C(=O)N2CC(C)OC(C)C2)c(F)c1 (stereo not drawn) [Compound 440, N-(2-fluoro-4-methylphenyl)-N-(4-(hydroxycarbamoyl)benzyl)-2,6-dimethylmorpholine-4-carboxamide] | 988 | 2 |
| Cc1ccc(N(Cc2ccc(C(=O)NO)cc2)C(=O)N2CCN(C)CC2)c(F)c1 [Compound 441, N-(2-fluoro-4-methylphenyl)-N-(4-(hydroxycarbamoyl)benzyl)-4-methylpiperazine-1-carboxamide] | 447 | 2 |
| CC(=O)N1CCCN(C(=O)N(Cc2ccc(C(=O)NO)cc2)c2ccccn2)CC1 [Compound 450, 4-acetyl-N-(4-(hydroxycarbamoyl)benzyl)-N-(pyridin-2-yl)-1,4-diazepane-1-carboxamide] | 6400 | 5 |
| O=C(NO)c1ccc(CN(C(=O)N2CCN(C(=O)C3CC3)CC2)c2ccccn2)cc1 [Compound 451, 4-(cyclopropanecarbonyl)-N-(4-(hydroxycarbamoyl)benzyl)-N-(pyridin-2-yl)piperazine-1-carboxamide] | 4810 | 5 |
| CCN1CCN(C(=O)N(Cc2ccc(C(=O)NO)cc2)c2ccc(C)cc2F)CC1 [Compound 453, 4-ethyl-N-(2-fluoro-4-methylphenyl)-N-(4-(hydroxycarbamoyl)benzyl)piperazine-1-carboxamide] | 604 | 3 |
| COc1ccccc1N1CCN(C(=O)N(Cc2ccc(C(=O)NO)cc2)c2ccc(C)cc2F)CC1 [Compound 454, N-(2-fluoro-4-methylphenyl)-N-(4-(hydroxycarbamoyl)benzyl)-4-(2-methoxyphenyl)piperazine-1-carboxamide] | 1320 | 5 |
| Cc1ccc(N(Cc2ccc(C(=O)NO)cc2)C(=O)N2CCN(c3ccc(F)cc3)CC2)c(F)c1 [Compound 455, N-(2-fluoro-4-methylphenyl)-4-(4-fluorophenyl)-N-(4-(hydroxycarbamoyl)benzyl)piperazine-1-carboxamide] | 1980 | 6 |
| O=C(NO)c1ccc(CN(C(=O)N2CCCCC2)c2ccc(F)c(Cl)c2)cc1 [Compound 456, N-(3-chloro-4-fluorophenyl)-N-(4-(hydroxycarbamoyl)benzyl)piperidine-1-carboxamide] | 1270 | 3 |
| CC1CCN(C(=O)N(Cc2ccc(C(=O)NO)cc2)c2ccc(F)c(Cl)c2)CC1 [Compound 457, N-(3-chloro-4-fluorophenyl)-N-(4-(hydroxycarbamoyl)benzyl)-4-methylpiperidine-1-carboxamide] | 3360 | 5 |
| O=C(NO)c1ccc(CN(C(=O)N2CCOCC2)c2ccc(F)c(Cl)c2)cc1 [Compound 458, N-(3-chloro-4-fluorophenyl)-N-(4-(hydroxycarbamoyl)benzyl)morpholine-4-carboxamide] | 474 | 1 |
| CC1CCN(C(=O)N(Cc2ccc(C(=O)NO)cc2)c2cccc(C(F)(F)F)c2)CC1 [Compound 459, N-(4-(hydroxycarbamoyl)benzyl)-4-methyl-N-(3-(trifluoromethyl)phenyl)piperidine-1-carboxamide] | 7350 | 14 |
| O=C(NO)c1ccc(CN(C(=O)N2CCCCC2)c2cccc(C(F)(F)F)c2)cc1 [Compound 460, N-(4-(hydroxycarbamoyl)benzyl)-N-(3-(trifluoromethyl)phenyl)piperidine-1-carboxamide] | 2370 | 3 |
| O=C(NO)c1ccc(CN(C(=O)N2CCCCC2)c2cccc(-c3ccc4c(c3)OCO4)c2)cc1 [Compound 462, N-(3-(benzo[d][1,3]dioxol-5-yl)phenyl)-N-(4-(hydroxycarbamoyl)benzyl)piperidine-1-carboxamide] | 1930 | 14 |
| O=C(NO)c1ccc(CN(C(=O)N2CCC(O)CC2)c2cccc(-c3ccc4c(c3)OCO4)c2)cc1 [Compound 463, N-(3-(benzo[d][1,3]dioxol-5-yl)phenyl)-4-hydroxy-N-(4-(hydroxycarbamoyl)benzyl)piperidine-1-carboxamide] | 284 | 3 |
| CC1CN(C(=O)N(Cc2ccc(C(=O)NO)cc2)c2cccc(-c3ccc4c(c3)OCO4)c2)CC(C)O1 (stereo not drawn) [Compound 464, N-(3-(benzo[d][1,3]dioxol-5-yl)phenyl)-N-(4-(hydroxycarbamoyl)benzyl)-2,6-dimethylmorpholine-4-carboxamide] | 1170 | 10 |
| O=C(NO)c1ccc(CN(C(=O)N2CCC(O)(c3ccccc3)CC2)c2cccc(-c3ccc4c(c3)OCO4)c2)cc1 [Compound 465, N-(3-(benzo[d][1,3]dioxol-5-yl)phenyl)-4-hydroxy-N-(4-(hydroxycarbamoyl)benzyl)-4-phenylpiperidine-1-carboxamide] | 2280 | 9 |
| CN1CCN(C(=O)N(Cc2ccc(C(=O)NO)cc2)c2cccc(-c3ccc4c(c3)OCO4)c2)CC1 [Compound 466, N-(3-(benzo[d][1,3]dioxol-5-yl)phenyl)-N-(4-(hydroxycarbamoyl)benzyl)-4-methylpiperazine-1-carboxamide] | 408 | 3 |
| O=C(NO)c1ccc(CN(C(=O)N2CCN(CCO)CC2)c2cccc(-c3ccc4c(c3)OCO4)c2)cc1 [Compound 467, N-(3-(benzo[d][1,3]dioxol-5-yl)phenyl)-N-(4-(hydroxycarbamoyl)benzyl)-4-(2-hydroxyethyl)piperazine-1-carboxamide] | 240 | 1 |
| O=C(NO)c1ccc(CN(C(=O)N2CCCC2)c2cccc(-c3ccc4c(c3)OCO4)c2)cc1 [Compound 468, N-(3-(benzo[d][1,3]dioxol-5-yl)phenyl)-N-(4-(hydroxycarbamoyl)benzyl)pyrrolidine-1-carboxamide] | 12300 | 10 |
| O=C(NO)c1ccc(CN(C(=O)N2CCC[C@H]2CO)c2cccc(-c3ccc4c(c3)OCO4)c2)cc1 [Compound 469, (S)—N-(3-(benzo[d][1,3]dioxol-5-yl)phenyl)-N-(4-(hydroxycarbamoyl)benzyl)-2-(hydroxymethyl)pyrrolidine-1-carboxamide] | 5340 | 12 |
| O=C(NO)c1ccc(CN(C(=O)N2CCN(C(=O)C3CC3)CC2)c2cccc(-c3ccc4c(c3)OCO4)c2)cc1 [Compound 470, N-(3-(benzo[d][1,3]dioxol-5-yl)phenyl)-4-(cyclopropanecarbonyl)-N-(4-(hydroxycarbamoyl)benzyl)piperazine-1-carboxamide] | 635 | 1 |
| O=C(NO)c1ccc(CN(C(=O)N2CCC2)c2cccc(-c3ccc4c(c3)OCO4)c2)cc1 [Compound 471, N-(3-(benzo[d][1,3]dioxol-5-yl)phenyl)-N-(4-(hydroxycarbamoyl)benzyl)azetidine-1-carboxamide] | 1150 | 14 |
| CN1CCN(C(=O)N(Cc2ccc(C(=O)NO)cc2)c2ccc(F)c(Cl)c2)CC1 [Compound 478, N-(3-chloro-4-fluorophenyl)-N-(4-(hydroxycarbamoyl)benzyl)-4-methylpiperazine-1-carboxamide] | 190 | 9 |
